Measurements from ChEMBL document CHEMBL4364308, “Design, synthesis, in-silico and biological evaluation of novel chalcone derivatives as multi-function agents for the treatment of Alzheimer's disease” (Eur J Med Chem, 2019).
Activity calls are given as the source filed them. No cut-off for these calls is given here.

Tests used:
Acetylcholinesterase = Acetylcholinesterase (Electrophorus electricus, UniProt O42275); assay: Inhibition of electric eel AChE using acetylthiocholine iodide as substrate incubated for 15 mins by Ellman's method; assay type: ADME
Sequence of Acetylcholinesterase (O42275 whole entry): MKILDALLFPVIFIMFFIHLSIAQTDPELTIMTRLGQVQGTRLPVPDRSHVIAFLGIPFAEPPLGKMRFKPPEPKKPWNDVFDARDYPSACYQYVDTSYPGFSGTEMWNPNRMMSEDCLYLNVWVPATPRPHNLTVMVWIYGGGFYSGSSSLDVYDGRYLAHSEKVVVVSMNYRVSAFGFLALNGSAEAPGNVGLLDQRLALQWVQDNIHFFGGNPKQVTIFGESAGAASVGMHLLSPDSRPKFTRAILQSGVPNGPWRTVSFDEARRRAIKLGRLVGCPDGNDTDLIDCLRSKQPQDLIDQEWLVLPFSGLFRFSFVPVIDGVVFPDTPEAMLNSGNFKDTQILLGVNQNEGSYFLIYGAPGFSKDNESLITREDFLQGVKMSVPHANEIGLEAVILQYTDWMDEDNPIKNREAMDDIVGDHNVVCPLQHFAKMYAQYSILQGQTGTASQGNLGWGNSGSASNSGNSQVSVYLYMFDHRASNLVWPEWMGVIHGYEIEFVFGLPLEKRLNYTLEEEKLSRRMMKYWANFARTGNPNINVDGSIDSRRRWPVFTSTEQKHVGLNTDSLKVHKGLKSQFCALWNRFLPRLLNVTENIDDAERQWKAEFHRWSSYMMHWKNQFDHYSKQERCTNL

Cholinesterase = Cholinesterase (Equus caballus, UniProt P81908); assay: Inhibition of equine serum BuChE using butyrylthiocholine iodide as substrate incubated for 15 mins by Ellman's method
Sequence of Cholinesterase (P81908 whole entry): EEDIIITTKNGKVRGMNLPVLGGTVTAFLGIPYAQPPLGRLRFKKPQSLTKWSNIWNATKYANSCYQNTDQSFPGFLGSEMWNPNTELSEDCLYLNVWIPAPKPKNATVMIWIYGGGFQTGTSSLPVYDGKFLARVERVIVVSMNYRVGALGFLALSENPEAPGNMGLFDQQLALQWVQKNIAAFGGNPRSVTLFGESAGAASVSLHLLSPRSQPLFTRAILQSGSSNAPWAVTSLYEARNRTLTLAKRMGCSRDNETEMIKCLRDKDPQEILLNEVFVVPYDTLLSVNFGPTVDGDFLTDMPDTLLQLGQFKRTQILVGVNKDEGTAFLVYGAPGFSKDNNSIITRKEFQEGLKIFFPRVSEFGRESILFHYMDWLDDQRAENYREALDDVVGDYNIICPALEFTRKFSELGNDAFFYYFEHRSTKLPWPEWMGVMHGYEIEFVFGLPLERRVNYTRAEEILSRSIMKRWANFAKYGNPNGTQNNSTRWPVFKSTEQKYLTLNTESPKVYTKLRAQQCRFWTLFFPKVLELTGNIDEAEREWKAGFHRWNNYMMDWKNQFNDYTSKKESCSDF

[1] = Selectivity index, ratio of IC50 for electric eel AChE to IC50 for equine serum BuChE
[2] = target: T1, Amine oxidase [flavin-containing] A (Homo sapiens, UniProt P21397); assay: Inhibition of recombinant human MAO-A expressed in baculovirus infected BTI insect cells at 10 uM incubated for 30 mins using kynuramine as substrate by fluorescence based assay relative to control; conditions: 0.5 h
T1 sequence (P21397 whole entry): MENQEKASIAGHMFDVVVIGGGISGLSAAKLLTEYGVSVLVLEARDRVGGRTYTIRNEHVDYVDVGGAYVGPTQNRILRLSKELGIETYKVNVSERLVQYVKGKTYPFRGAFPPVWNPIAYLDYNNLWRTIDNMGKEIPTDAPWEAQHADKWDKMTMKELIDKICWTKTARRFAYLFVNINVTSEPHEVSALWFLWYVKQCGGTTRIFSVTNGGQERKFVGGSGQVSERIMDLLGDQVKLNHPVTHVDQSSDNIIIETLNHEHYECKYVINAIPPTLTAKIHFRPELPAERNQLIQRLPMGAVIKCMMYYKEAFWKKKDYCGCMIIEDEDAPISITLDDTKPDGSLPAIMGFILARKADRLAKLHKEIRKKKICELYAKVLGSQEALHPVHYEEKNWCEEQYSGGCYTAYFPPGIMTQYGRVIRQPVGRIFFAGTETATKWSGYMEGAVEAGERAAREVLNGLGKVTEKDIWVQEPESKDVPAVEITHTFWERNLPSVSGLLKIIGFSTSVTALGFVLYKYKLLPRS

[3] = target: T2, Amine oxidase [flavin-containing] B (Homo sapiens, UniProt P27338); assay: Inhibition of recombinant human MAO-B expressed in baculovirus infected BTI insect cells using kynuramine as substrate incubated for 30 mins by fluorescence based assay; assay type: cell-based
T2 sequence (P27338 whole entry): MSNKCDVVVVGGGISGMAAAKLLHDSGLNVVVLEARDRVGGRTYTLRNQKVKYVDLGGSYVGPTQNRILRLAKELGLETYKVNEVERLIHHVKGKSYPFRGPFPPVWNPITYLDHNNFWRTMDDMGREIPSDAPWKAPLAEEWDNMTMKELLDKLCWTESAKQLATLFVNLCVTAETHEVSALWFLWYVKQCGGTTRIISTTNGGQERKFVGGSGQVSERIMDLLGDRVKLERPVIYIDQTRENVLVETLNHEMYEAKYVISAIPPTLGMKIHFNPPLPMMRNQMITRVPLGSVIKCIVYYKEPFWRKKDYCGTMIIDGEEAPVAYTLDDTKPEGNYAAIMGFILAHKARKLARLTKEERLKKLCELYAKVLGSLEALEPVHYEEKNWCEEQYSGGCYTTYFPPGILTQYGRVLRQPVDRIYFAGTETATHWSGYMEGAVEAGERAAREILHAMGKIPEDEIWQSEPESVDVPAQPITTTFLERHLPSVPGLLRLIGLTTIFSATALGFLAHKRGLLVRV

[4] = target: Cholinesterase (Equus caballus) (UniProt P81908); assay: Reversible inhibition of equine serum BuChE assessed as enzyme activity at 0.1xIC50 using butyrylthiocholine iodide as substrate measured after dilution by Ellman's method relative to control; set-up: scale not given: the % may be the effect or the level left
Sequence of Cholinesterase (Equus caballus) (P81908 whole entry): as the sequence (P81908 whole entry) above

[5] = target: Cholinesterase (Equus caballus) (UniProt P81908); assay: Reversible inhibition of equine serum BuChE assessed as enzyme activity at 1xIC50 using butyrylthiocholine iodide as substrate measured after dilution by Ellman's method relative to control; set-up: scale not given: the % may be the effect or the level left
[6] = target: Cholinesterase (Equus caballus) (UniProt P81908); assay: Reversible inhibition of equine serum BuChE assessed as enzyme activity at 0.1xIC50 using butyrylthiocholine iodide as substrate measured at 240 mins after dilution by Ellman's method relative to control; set-up: scale not given: the % may be the effect or the level left
[7] = Antioxidant activity assessed as AAPH radical scavenging activity preincubated for 15 mins followed by AAPH addition measured every min for 90 mins by ORAC-FL assay relative to trolox; assay type: functional
[8] = target: Amyloid-beta precursor protein (Homo sapiens) (UniProt P05067); assay: Inhibition of self-induced aggregation of amyloid beta (1 to 42) (unknown origin) at 25 uM incubated for 24 hrs by thioflavin-T fluorescence assay relative to control
Sequence of Amyloid-beta precursor protein (Homo sapiens) (P05067 whole entry): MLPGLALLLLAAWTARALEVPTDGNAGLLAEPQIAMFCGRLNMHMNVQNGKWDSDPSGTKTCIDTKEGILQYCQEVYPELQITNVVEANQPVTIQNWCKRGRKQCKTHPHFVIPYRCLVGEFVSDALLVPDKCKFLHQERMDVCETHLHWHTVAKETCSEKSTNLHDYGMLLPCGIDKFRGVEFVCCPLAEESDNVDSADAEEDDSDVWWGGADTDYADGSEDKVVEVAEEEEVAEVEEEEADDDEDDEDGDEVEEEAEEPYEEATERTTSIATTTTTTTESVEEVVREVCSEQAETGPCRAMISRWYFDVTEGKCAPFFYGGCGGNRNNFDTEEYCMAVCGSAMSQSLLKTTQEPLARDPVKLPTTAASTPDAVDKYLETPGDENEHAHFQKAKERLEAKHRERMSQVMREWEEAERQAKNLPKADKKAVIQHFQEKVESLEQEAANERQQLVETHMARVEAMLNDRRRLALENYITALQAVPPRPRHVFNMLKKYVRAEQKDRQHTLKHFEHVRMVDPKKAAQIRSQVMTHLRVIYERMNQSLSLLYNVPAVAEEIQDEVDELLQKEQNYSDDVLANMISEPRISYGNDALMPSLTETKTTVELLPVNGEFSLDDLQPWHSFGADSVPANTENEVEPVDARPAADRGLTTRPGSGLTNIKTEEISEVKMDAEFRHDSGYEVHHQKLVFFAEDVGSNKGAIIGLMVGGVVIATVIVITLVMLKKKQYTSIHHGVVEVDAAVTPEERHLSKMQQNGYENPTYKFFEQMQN

[9] = Inhibition of Cu2+ induced human amyloid beta (1 to 42) aggregation at 25 uM after 24 hrs by thioflavin-T fluorescence assay relative to control
[10] = Disaggregation of Cu2+ induced preformed fibrils of amyloid beta (1 to 42) (unknown origin) at 25 uM after 24 hrs by transmission electron microscopy relative to control
[11] = Metal chelating activity assessed as compound-Cu2+ complex formation by measuring shift in maximum absorption from 361 nm to 418 nm at 37.5 uM after 30 mins by UV-visible spectrometry method
[12] = Metal chelating activity assessed as compound-Al3+ complex formation by measuring shift in maximum absorption from 361 nm to 426 nm at 37.5 uM after 30 mins by UV-visible spectrometry method
[13] = Metal chelating activity assessed as compound-Zn2+ complex formation assessed as effect on maximum absorption shift at 37.5 uM after 30 mins by UV-visible spectrometry method
[14] = Metal chelating activity assessed as compound-Fe2+ complex formation assessed as effect on maximum absorption shift at 37.5 uM after 30 mins by UV-visible spectrometry method
[15] = Metal chelating activity assessed as compound-Cu+ complex formation assessed as effect on maximum absorption shift at 37.5 uM after 30 mins by UV-visible spectrometry method
[16] = Metal chelating activity assessed as compound-Fe3+ complex formation assessed as effect on maximum absorption shift at 37.5 uM after 30 mins by UV-visible spectrometry method
PC-12 [17] = assay: Neuroprotective activity against H2O2-induced cell death in rat PC12 cells assessed as cell viability at 10 uM preincubated for 24 hrs followed by H2O2 stimulation for 2 hrs followed by replacement of fresh medium and measured after 24 hrs by MTT assay (reference value: 51.3%); assay type: functional; conditions: read-out: Activity
PC-12 [18] = assay: Neuroprotective activity against H2O2-induced cell death in rat PC12 cells assessed as cell viability at 1 uM preincubated for 24 hrs followed by H2O2 stimulation for 2 hrs followed by replacement of fresh medium and measured after 24 hrs by MTT assay (reference value: 51.3%); assay type: functional; conditions: read-out: Activity
PC-12 [19] = assay: Neuroprotective activity against H2O2-induced cell death in rat PC12 cells assessed as increase in cell viability preincubated for 24 hrs followed by H2O2 stimulation for 2 hrs followed by replacement of fresh medium and measured after 24 hrs by MTT assay; assay type: functional, cell-based
[20] = Permeability of compound at 100 ug/ml measured after dilution with PBS/EtOH (70:30) at pH 7.4 after 18 hrs by PAMPA-BBB assay
[21] = Acute toxicity in Kunming mouse assessed as mortality at 250 to 1000 mg/kg, po measured for first 4 hrs through 14 days; assay type: organism-based; conditions: in vivo
Mus musculus [22] = assay: (§1) Antialzheimer activity in po dosed scopolamine-induced memory impairment Kunming mouse model assessed as increase in latency time treated with compound 1 hr before training trial followed by 30 mins later administration with scopolamine and measured 24 hrs after training trial by step-down passive avoidance test; assay type: functional, organism-based
Mus musculus [23] = assay: as §1, with “in” for “in po dosed”, “as” for “as increase in”, “time at 16.8 mg/kg po” for “time”, “test (reference value: 70.4 secs)” for “test”; assay type: functional
PC-12 [24] = assay: Cytotoxicity against rat PC12 cells assessed as cell viability at 0.1 to 100 uM incubated for 24 hrs by MTT assay; assay type: cell-based; conditions: pc-12, 24 h
[25] = Acute toxicity in Kunming mouse assessed as abnormal behaviour at 250 to 1000 mg/kg, po measured for first 4 hrs through 14 days; assay type: organism-based; conditions: in vivo
[26] = target: T1, Amine oxidase [flavin-containing] A; assay: Inhibition of recombinant human MAO-A expressed in baculovirus infected BTI insect cells using kynuramine as substrate incubated for 30 mins by fluorescence based assay
Homo sapiens = organism: Homo sapiens; assay: Selectivity index, ratio of IC50 for recombinant human MAO-A expressed in baculovirus infected BTI insect cells to IC50 for recombinant human MAO-B expressed in baculovirus infected BTI insect cells

Structure (SMILES)	IC50 (Acetylcholinesterase) [µM]	IC50 (Cholinesterase) [µM]	Ratio IC50 [1]	inhibition at 10 µM [2] [%]	IC50 [3] [µM]	Activity [7] [µMequiv/µM]	inhibition [8] [%]	Papp at 18 h, 100 ug/ml [20] [×10⁻⁶ cm/s]	IC50 [26] [µM]	Ratio IC50 (Homo sapiens)	other results
O=C(/C=C/c1cccc(OCCCCN2CCc3ccccc3C2)c1)c1ccccc1O	16.2	2.6	6.2	< 5	5.3	1.2	70.2	11.3	–	–	Activity [4]: 60.8%; Activity [5]: 52.6%; Activity [6]: 104%; inhibition [9]: 80.7%; inhibition [10]: 73.5%; Activity [11]: Active; Activity [12]: Active; Activity [13]: inactive; Activity [14]: inactive; Activity [15]: inactive; Activity [16]: inactive; viability at 10 µM (PC-12 [17]): 82.6%; viability at 1 µM (PC-12 [18]): 61.9%; Activity (PC-12 [19]): Dose-dependent effect; Activity [21]: Non-Toxic; Activity (Mus musculus [22]): Dose-dependent effect; Time (Mus musculus [23]): 126.4 s; Activity (PC-12 [24]): Non-Toxic; Activity [25]: Non-Toxic
COc1cc(/C=C/C(=O)CC(=O)/C=C/c2ccc(O)c(OC)c2)ccc1O	–	–	–	–	–	–	–	–	–	–	inhibition [9]: 76.5%; inhibition [10]: 56.5%
O=C(/C=C/c1cccc(OCCCN2CCc3ccccc3C2)c1)c1ccccc1O	17.6	11.2	1.6	–	10.7	1.1	65.9	10.2	29.8	2.8	–
COc1cc2c(cc1OC)C(=O)C(CC1CCN(Cc3ccccc3)CC1)C2 (centres undefined)	–	–	–	–	–	–	–	–	–	–	Activity [4]: 60.5%; Activity [5]: 50.9%; Activity [6]: 127%
CN(C)c1ccc(/C=C/C(=O)c2ccc(OCCCCCCN3CCc4ccccc4C3)cc2O)cc1	6.6	10.4	0.6	< 5	7.1	1.6	97.5	13.2	–	–	–
O=C(/C=C/c1cccc(OCCCCN2CCC(Cc3ccccc3)CC2)c1)c1ccccc1O	15.3	4.9	3.1	< 5	6.4	1.2	71.4	12.3	–	–	–
O=C(CCc1cccc(OCCCCN2CCc3ccccc3C2)c1)c1ccccc1O	23.1	0.64	36	< 5	26.7	1.4	–	16.8	–	–	–
COc1ccccc1/C=C/C(=O)c1ccc(OCCCCN2CCc3ccccc3C2)cc1O	8.3	5.2	1.6	–	9.5	1.5	83.1	13.1	30.1	2.4	–
O=C(/C=C/c1ccc(F)cc1)c1ccc(OCCCN2CCc3ccccc3C2)cc1O	22.3	13.4	1.7	–	12.6	0.92	72.4	12.6	26.1	2.1	–
O=C(/C=C/c1cccc(OCCCCCCN2CCc3ccccc3C2)c1)c1ccccc1O	27.1	4.1	6.6	–	6.7	1.1	65.6	11.8	31.5	4.7	–
O=C(/C=C/c1cccc(OCCCCCN2CCc3ccccc3C2)c1)c1ccccc1O	18.6	3.7	7.2	< 5	4.8	1.2	69.7	10	–	–	–
